Values quoted from earlier work in patent US5520931A (Gacell Laboratories AB, priority 1992, dated 1996).

Tested on: cancer pain
Settings: severe pain, WHO programme

SMILES: CN1CC[C@]23c4c5ccc(O)c4O[C@H]2[C@@H](O)C=C[C@H]3[C@H]1C5 [morphine]
- efficacy and acceptability in advanced cancer pain: both efficacious and acceptable
